In patent US11903912B2, “Composition for preventing and treating breast cancer including selenopsammaplin A as active ingredients” (Seoul National University R & DB Foundation, priority 2019, dated 2024):
pIC50: −log10 of the molar value.

Key:
breast tumors = assay: Breast tumor growth in xenograft mouse model; assay type: in vivo, nude BALB/c mice
Procedure: Breast cancer cells were injected into fat pads of nude BALB/c mice (8-week-old, female). When the tumor size reached about 200 mm^3, the compound was injected intraperitoneally three times a week. The tumor volume was calculated by the following equation: [volume […]=(L×W2)/2] and illustrated in FIG. 8A. 38 days after administration began, the mice were sacrificed and tumors were extracted, and the weights thereof were measured and illustrated in FIG. 8B. The body weights of the mice measured during the experiment are illustrated in FIG. 8C.

[1] = system: MDA-MB231 human breast cancer cells; assay: SRB cytotoxicity test, MDA-MB231; assay type: cell-based; settings: SRB assay, cultured 3 days
Procedure: (§1) A cytotoxicity test was performed using synthesized selenopsammaplin A and derivatives thereof (Lee S K et al […] Chem Biol Interact 115:215-28).
(§2) The cytotoxicity test was performed on a total of five representative cancer cell lines. The cytotoxicity of each compound was measured using an SRB assay method (human lung cancer cells, A549; human colon cancer cells, HCT116; human breast cancer cells, MDA-MB231; human liver cancer cells, SK-HEP-1; human gastric cancer cells, SNU638).
(§3) Each cell line was sub-cultured once or twice using Roswell Park Memorial Institute (RPMI) medium 1640 (RPMI 1640) or Dulbecco's Modified Eagle's Medium (DMEM) containing 10% fetal bovine serum (FBS) inactivated by heat, 100 units/mL of penicillin, 100 μg/mL of streptomycin, and 250 ng/mL of amphotericin B at 37° C. for 1 week under a 5% CO2 condition. All cells were […] in liquid nitrogen, and then passaged three or more times to be used in the experiment. The effects of compounds on cell growth were measured using a sulforhodamine B (SRB) method (Lee et al (1998) Chemico-Biol Interact 115:215-228).
(§4) Specifically, each human cancer cell line used in the present invention was sub-cultured in an RPMI medium containing 10% FBS, 1% PSF, and the like, and 10 μl of a sample dissolved in 10% DMSO and 190 μl (4-5×10^4 cells/ml) of the cell suspension were added to each well of a 96-well plate and cultured for 3 days. 190 μl of the cell suspension was added to at least 16 wells and cultured for 30 minutes, and used as a zero-day control. The cultured cells were fixed with 10% trichloroacetic acid (TCA) and then stained with an SRB solution, and the staining solution was dissolved with 10 mM Tris-base, and then absorbance at 515 nm was measured. Using the case of culturing in 10% DMSO as a control, cell viability according to each test material treatment was measured using Equation 1 below. Etoposide was used as a positive control. % Viability=(OD(sample)−OD(0-day))/(OD(10% DMSO)−OD(0-day))×100 [Equation 1]
(§5) Assuming that a control not-treated with the sample was set at 100%, the values of sample-treated groups were expressed as percentage with respect to the control, and each test material treatment results were obtained as the mean±SEM of two or three tests. The IC50 value is the concentration of the test material for a 50% survival rate.

DOT1L = molecular target: T1, DOT1L (Homo sapiens, UniProt Q8TEK3); assay: Target selectivity for H3K79 residue in MDA-MB-231 cell line, western blot; assay type: cell-based
T1 construct: based on the finding that DOT1L was overexpressed in the breast cancer cell line; endogenous in cells
Procedure: Compound 2 (X=ph) was selected from among selenopsammaplin A and the derivatives thereof, and in order to confirm the selectivity thereof for the H3K79 residue, which is an intracellular DOT1L target, an experiment was performed as follows. The triple-negative breast cancer cell line MDA-MB-231 was spread at a concentration of 2×10^6 cells/well on a DMEM medium containing 10% FBS in a 6-well plate, cultured at 37° C. for 24 hours under a 5% CO2 condition, and then washed twice with phosphate-buffered saline (PBS). Attached cells were recovered and washed twice with PBS, and then boiling 2× sample loading buffer (250 mM Tris-HCl (pH 6.8), 4% SDS, 10% glycerol, 0.006% bromophenol blue, 2% β-mercaptoethanol, 50 mM sodium fluoride, and 5 mM sodium orthovanadate) was added thereto to disrupt the cells and the cells were left at 100° C. for 10 minutes. After cooling, the cells were stored at […] and […] at 37° C. immediately before use in protein quantification and electrophoresis. 10 μg of proteins were electrophoresed at 100 V for 2 hours using a 12% SDS-polyacrylamide gel (#456-1036, Bio-Rad, Hercules, Calif.). […] These were quantified using ImageJ software and the results thereof are illustrated in FIG. 4B.

[2] = system: SK-HEP-1 human liver cancer cells; assay: SRB cytotoxicity test, SK-HEP-1; assay type: cell-based; settings: SRB assay, cultured 3 days
Procedure: as §1, §2, §3, §4, §5

T1 sequence (Q8TEK3 whole entry): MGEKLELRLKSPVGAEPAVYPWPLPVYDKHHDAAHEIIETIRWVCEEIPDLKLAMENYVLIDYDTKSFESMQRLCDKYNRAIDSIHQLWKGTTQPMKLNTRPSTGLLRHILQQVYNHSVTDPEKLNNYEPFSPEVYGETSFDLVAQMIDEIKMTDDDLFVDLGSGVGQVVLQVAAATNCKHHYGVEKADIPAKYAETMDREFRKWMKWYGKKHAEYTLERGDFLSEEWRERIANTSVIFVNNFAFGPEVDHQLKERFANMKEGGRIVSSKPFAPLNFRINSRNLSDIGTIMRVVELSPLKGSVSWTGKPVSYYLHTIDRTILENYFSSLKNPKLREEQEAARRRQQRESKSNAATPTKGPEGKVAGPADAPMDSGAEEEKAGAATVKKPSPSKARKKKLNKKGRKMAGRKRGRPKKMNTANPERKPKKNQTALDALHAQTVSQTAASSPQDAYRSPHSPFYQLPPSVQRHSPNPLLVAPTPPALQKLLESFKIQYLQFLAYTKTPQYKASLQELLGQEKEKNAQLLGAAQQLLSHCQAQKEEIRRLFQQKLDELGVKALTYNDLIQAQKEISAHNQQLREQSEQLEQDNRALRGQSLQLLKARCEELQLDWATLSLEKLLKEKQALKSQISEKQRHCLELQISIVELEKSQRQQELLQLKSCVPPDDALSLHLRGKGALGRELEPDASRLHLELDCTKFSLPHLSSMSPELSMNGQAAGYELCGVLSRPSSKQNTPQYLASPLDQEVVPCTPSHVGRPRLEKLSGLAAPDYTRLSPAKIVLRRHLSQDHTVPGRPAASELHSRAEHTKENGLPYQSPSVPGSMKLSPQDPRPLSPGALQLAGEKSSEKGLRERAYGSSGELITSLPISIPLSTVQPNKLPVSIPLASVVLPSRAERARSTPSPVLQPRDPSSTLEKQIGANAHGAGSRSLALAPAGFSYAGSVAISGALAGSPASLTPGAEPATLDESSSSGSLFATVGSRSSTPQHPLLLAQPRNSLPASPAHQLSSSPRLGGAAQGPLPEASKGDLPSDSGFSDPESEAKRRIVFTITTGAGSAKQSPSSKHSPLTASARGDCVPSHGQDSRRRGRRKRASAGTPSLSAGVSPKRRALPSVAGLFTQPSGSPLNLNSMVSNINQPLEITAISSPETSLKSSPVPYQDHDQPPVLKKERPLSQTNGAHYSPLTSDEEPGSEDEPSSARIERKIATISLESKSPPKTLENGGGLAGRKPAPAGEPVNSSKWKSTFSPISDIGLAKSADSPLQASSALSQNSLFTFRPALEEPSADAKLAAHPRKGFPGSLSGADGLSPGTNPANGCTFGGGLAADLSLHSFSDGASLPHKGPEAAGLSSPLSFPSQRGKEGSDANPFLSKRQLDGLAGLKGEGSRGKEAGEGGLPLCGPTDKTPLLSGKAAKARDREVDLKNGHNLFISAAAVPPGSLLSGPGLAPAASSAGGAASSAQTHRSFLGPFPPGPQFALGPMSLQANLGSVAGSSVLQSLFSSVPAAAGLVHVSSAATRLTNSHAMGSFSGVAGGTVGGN

O=C(NCC[Se][Se]CCNC(=O)/C(Cc1ccccc1)=N/O)/C(Cc1ccccc1)=N/O [Compound 2, (2E,2′E)-N,N′-(diselenediylbis(ethane-2,1-diyl))bis(2-(hydroxyimino)-3-phenylpropanamide)]
tumor weight (breast tumors; 38 days after administration began, compared to control, psammaplin A and paclitaxel groups): remarkably reduced
tumor volume (breast tumors; intraperitoneally three times a week, compared to the control): remarkably reduced
body weights of the mice (breast tumors; measured during the xenograft experiment): not affected
pIC50 [1]: 7.22
methylation of other histone 3 residues (DOT1L; MDA-MB-231, H3K4me2, H3K27me2, H3K36me2 western blot, FIG. 4): without changing
methylation of H3K79 (residue 79) (DOT1L; MDA-MB-231, H3K79me2 western blot, FIG. 4, compared to psammaplin A): specifically suppressed
pIC50 [2]: 6.92
